Laboratory results taken from ChEMBL document CHEMBL4184141, “Investigating the Antibacterial Activity of Biphenylthiazoles against Methicillin- and Vancomycin-Resistant Staphylococcus aureus (MRSA and VRSA)” (J Med Chem, 2017).
Values after ≈ are worked out from the molar mass of the structure shown.

System: Staphylococcus aureus
Assay: Antibacterial activity against methicillin-resistant Staphylococcus aureus 2658 RCMB up to 20 hrs by broth microdilution assay
Format: functional

`Cc1nc(-c2ccc(-c3ccccc3)cc2)sc1-c1ccnc(-c2ccncc2)n1` showed an MIC greater than 25 µg/mL.

For `Cc1nc(-c2ccc(-c3ccccc3)cc2)sc1-c1ccnc(NC(=N)c2ccncc2)n1`, the MIC was greater than 25 µg/mL.

With `CCN(CC)c1nccc(-c2sc(-c3ccc(-c4ccccc4)cc3)nc2C)n1` the MIC was greater than 25 µg/mL.

Molecule `CCCCc1ccc(-c2nc(C)c(-c3ccnc(N)n3)s2)cc1` has an MIC of 3.6 µg/mL (≈ 11.1 µM).

`Cc1nc(-c2ccc(-c3ccccc3)cc2)sc1-c1ccnc(NC(=N)N2CCCC2)n1` showed an MIC of 12.5 µg/mL (≈ 28.4 µM).

Molecule `Cc1nc(-c2ccc(-c3ccccc3)cc2)sc1-c1ccnc(N2CCOCC2)n1` has an MIC of 3.12 µg/mL (≈ 7.53 µM).

In the case of `Cc1nc(-c2ccc(-c3ccccc3)cc2)sc1-c1ccnc(NC2CCCCC2)n1`, the MIC is reported as greater than 25 µg/mL.

In the case of `Cc1nc(-c2ccc(-c3ccccc3)cc2)sc1-c1ccnc(NC(=N)n2cccn2)n1`, the MIC is reported as greater than 25 µg/mL.

For `Cc1nc(-c2ccc(-c3ccccc3)cc2)sc1-c1ccnc(N(C)C)n1`, the MIC was greater than 25 µg/mL.

`Cc1nc(-c2ccc(-c3ccccc3)cc2)sc1-c1ccnc(NC(N)=S)n1` gave an MIC greater than 25 µg/mL.

`Cc1nc(-c2ccc(-c3ccccc3)cc2)sc1-c1ccnc(-c2cccnc2)n1` was tested, and the MIC was greater than 25 µg/mL.

For `Cc1nc(-c2ccc(-c3ccccc3)cc2)sc1-c1ccncn1`, the MIC was greater than 25 µg/mL.

With `CCCNc1nccc(-c2sc(-c3ccc(-c4ccccc4)cc3)nc2C)n1` the MIC was greater than 25 µg/mL.

For `Cc1nc(-c2ccc(-c3ccccc3)cc2)sc1-c1ccnc(NC2CCCC2)n1`, the MIC was greater than 25 µg/mL.

With `Cc1nc(-c2ccc(-c3ccccc3)cc2)sc1-c1ccnc(NC(C)C)n1` the MIC was greater than 25 µg/mL.

Molecule `CNc1nccc(-c2sc(-c3ccc(-c4ccccc4)cc3)nc2C)n1` has an MIC of 12.5 µg/mL (≈ 34.9 µM).

Work on `Cc1nc(-c2ccc(-c3ccccc3)cc2)sc1-c1ccnc(NC#N)n1` yielded an MIC greater than 25 µg/mL.

Molecule `Cc1nc(-c2ccc(-c3ccccc3)cc2)sc1-c1ccnc(NC(=N)N2CCCCC2)n1` has an MIC greater than 25 µg/mL.

`Cc1nc(-c2ccc(-c3ccccc3)cc2)sc1-c1ccnc(N)n1` showed an MIC of 6.25 µg/mL (≈ 18.1 µM).

`Cc1nc(-c2ccc(-c3ccccc3)cc2)sc1-c1ccnc(NC(=N)c2cccnc2)n1` showed an MIC greater than 25 µg/mL.

With `Cc1nc(-c2ccc(-c3ccccc3)cc2)sc1-c1ccnc(N2CCCCC2)n1` the MIC was greater than 25 µg/mL.

Molecule `Cc1nc(-c2ccc(-c3ccccc3)cc2)sc1-c1ccnc(N=C(N(C)C)N(C)C)n1` has an MIC greater than 25 µg/mL.

In the case of `Cc1nc(-c2ccc(-c3ccccc3)cc2)sc1-c1ccnc(N2CCC2)n1`, the MIC is reported as greater than 25 µg/mL.

`Cc1nc(-c2ccc(-c3ccccc3)cc2)sc1-c1ccnc(-c2ccccn2)n1` was tested, and the MIC was greater than 25 µg/mL.

Molecule `Cc1nc(-c2ccc(-c3ccccc3)cc2)sc1-c1ccnc(NC(=N)c2ccccn2)n1` has an MIC greater than 25 µg/mL.

For `Cc1nc(-c2ccc(-c3ccccc3)cc2)sc1-c1ccnc(NN2CCOCC2)n1`, the MIC was 3.12 µg/mL (≈ 7.26 µM).

Work on `Cc1nc(-c2ccc(-c3ccccc3)cc2)sc1-c1ccnc(NN)n1` yielded an MIC of 1.56 µg/mL (≈ 4.34 µM).

In the case of `CCCCNc1nccc(-c2sc(-c3ccc(-c4ccccc4)cc3)nc2C)n1`, the MIC is reported as greater than 25 µg/mL.

Molecule `Cc1nc(-c2ccc(-c3ccccc3)cc2)sc1-c1ccnc(N2CCCC2)n1` has an MIC greater than 25 µg/mL.

With `Cc1nc(-c2ccc(-c3ccccc3)cc2)sc1-c1ccnc(N2CC(O)C2)n1` the MIC was 3.12 µg/mL (≈ 7.79 µM).

`CCNc1nccc(-c2sc(-c3ccc(-c4ccccc4)cc3)nc2C)n1` gave an MIC of 6.25 µg/mL (≈ 16.8 µM).
